Data: article PMC9610943, “Truncated Pleurocidin Derivative with High Pepsin Hydrolysis Resistance to Combat Multidrug-Resistant Pathogens” (Pharmaceutics, 2022)
Converted amounts (≈) assume the structure as drawn.

Legend:
[1] = tested on: P. cibarius HNCF44W (blaNDM-1+ tet(X6)); experiment: organism not typed; type: cell-based; details: P. cibarius HNCF44W (blaNDM-1+ tet(X6)); micro-broth dilution CLSI 2018, MHB, 37 °C, 16 to 18 h; read-out: MIC
Description: (§1) S. aureus ATCC 29213, E. coli ATCC 25922, S. enteritidis ATCC 13076 and A. baumannii ATCC 19609 were obtained from the American Type Culture Collection (ATCC). The remaining strains used in the experiment were all preserved strains in our laboratory. All strains were cultured in nutrient broth overnight to the logarithmic phase at 37 °C prior to each experiment.
(§2) The MICs of all drugs were determined by micro-broth dilution method according to CLSI 2018 guidelines. Briefly, a single colony of the bacterial strain was transferred to 1 mL of Mueller Hilton broth (MHB) and overnight at 37 °C and then 10 μL were cultured in a new 1 mL medium for 4 to 6 h, and then the bacterial culture at the logarithmic phase was diluted to 1 × 10^6 CFUs/mL. The assay was performed by adding 100 μL of each peptide solution at various concentrations (0.25 to 128 μg/mL) and 100 μL of diluted bacterial culture to different wells of a 96-well microtiter plate (Corning, NY, USA). After incubation at 37 °C for 16 to 18 h and then read its MIC value. MIC value is defined as the lowest drug concentration without visible bacteria.

[2] = tested on: MRSA T144; experiment: microbe, parasite or virus in culture; type: cell-based, Staphylococcus aureus; details: Staphylococcus aureus; MRSA T144; micro-broth dilution CLSI 2018, MHB, 37 °C, 16 to 18 h; read-out: MIC
Description: as §1, §2

[3] = tested on: MRSA 1530; experiment: microbe, parasite or virus in culture; type: cell-based, Staphylococcus aureus; details: Staphylococcus aureus; MRSA 1530; micro-broth dilution CLSI 2018, MHB, 37 °C, 16 to 18 h; read-out: MIC
Description: as §1, §2

[4] = tested on: E. coli ATCC 25922; experiment: microbe, parasite or virus in culture; type: cell-based; details: Escherichia coli, ATCC25922
Description: as §1, §2

[5] = tested on: A. baumannii ATCC 19609; experiment: microbe, parasite or virus in culture; type: cell-based; details: Acinetobacter baumannii, ATCC19609; A. baumannii ATCC 19609; micro-broth dilution CLSI 2018, MHB, 37 °C, 16 to 18 h; read-out: MIC
Description: as §1, §2

[6] = tested on: E. coli 1F28 (tet(X4)); experiment: microbe, parasite or virus in culture; type: cell-based; details: Escherichia coli; E. coli 1F28 (tet(X4)); micro-broth dilution CLSI 2018, MHB, 37 °C, 16 to 18 h; read-out: MIC
Description: as §1, §2

[7] = tested on: S. enteritidis ATCC 13076; experiment: microbe, parasite or virus in culture; type: cell-based; details: Salmonella enterica
Description: as §1, §2

[8] = tested on: P. aeruginosa (VIM + tmexCD1-torJ1); experiment: microbe, parasite or virus in culture; type: cell-based; details: Pseudomonas aeruginosa
Description: as §1, §2

[9] = tested on: E. coli C3 (blaNDM-1); experiment: microbe, parasite or virus in culture; type: cell-based; details: Escherichia coli; E. coli C3 (blaNDM-1); micro-broth dilution CLSI 2018, MHB, 37 °C, 16 to 18 h; read-out: MIC
Description: as §1, §2

[10] = tested on: S. aureus 215 (cfr + LZD^R); experiment: microbe, parasite or virus in culture; type: cell-based; details: Staphylococcus aureus
Description: as §1, §2

[11] = tested on: E. coli G6 (blaNDM-5); experiment: microbe, parasite or virus in culture; type: cell-based; details: Escherichia coli; E. coli G6 (blaNDM-5); micro-broth dilution CLSI 2018, MHB, 37 °C, 16 to 18 h; read-out: MIC
Description: as §1, §2

[12] = tested on: E. coli B2 (blaNDM-5 + mcr-1); experiment: microbe, parasite or virus in culture; type: cell-based; details: Escherichia coli; E. coli B2 (blaNDM-5 + mcr-1); micro-broth dilution CLSI 2018, MHB, 37 °C, 16 to 18 h; read-out: MIC
Description: as §1, §2

[13] = tested on: E. coli B3-1 (tet(X4)); experiment: microbe, parasite or virus in culture; type: cell-based; details: Escherichia coli; E. coli B3-1 (tet(X4)); micro-broth dilution CLSI 2018, MHB, 37 °C, 16 to 18 h; read-out: MIC
Description: as §1, §2

[14] = tested on: E. faecalis A4 (VRE, VanA); experiment: microbe, parasite or virus in culture; type: cell-based; details: Enterococcus faecalis, VRE
Description: as §1, §2

[15] = tested on: S. aureus G16 (RIF^R); experiment: microbe, parasite or virus in culture; type: cell-based; details: Staphylococcus aureus
Description: as §1, §2

[16] = tested on: P. aeruginosa PA14; experiment: microbe, parasite or virus in culture; type: cell-based; details: Pseudomonas aeruginosa, PA14
Description: as §1, §2

[17] = tested on: S. aureus ATCC 29213; experiment: microbe, parasite or virus in culture; type: cell-based; details: Staphylococcus aureus, ATCC29213
Description: as §1, §2

[18] = tested on: E. coli CP131 (mcr-3); experiment: microbe, parasite or virus in culture; type: cell-based; details: Escherichia coli; E. coli CP131 (mcr-3); micro-broth dilution CLSI 2018, MHB, 37 °C, 16 to 18 h; read-out: MIC
Description: as §1, §2

[19] = tested on: E. coli G92 (mcr-1); experiment: microbe, parasite or virus in culture; type: cell-based; details: Escherichia coli; E. coli G92 (mcr-1); micro-broth dilution CLSI 2018, MHB, 37 °C, 16 to 18 h; read-out: MIC
Description: as §1, §2

Structure (SMILES): CN(C)c1cc(NC(=O)CNC(C)(C)C)c(O)c2c1C[C@H]1C[C@H]3[C@H](N(C)C)C(O)=C(C(N)=O)C(=O)[C@@]3(O)C(O)=C1C2=O [Tig, tigecycline, reference compound]
- MIC [1]: 64 µg/mL (≈ 109 µM)
- MIC [2]: 0.25 µg/mL (≈ 0.427 µM)
- MIC [3]: 1 µg/mL (≈ 1.71 µM)
- MIC [4]: 0.125 µg/mL (≈ 0.213 µM)
- MIC [5]: 0.25 µg/mL (≈ 0.427 µM)
- MIC [6]: 16 µg/mL (≈ 27.3 µM)
- MIC [7]: 0.125 µg/mL (≈ 0.213 µM)
- MIC [8]: < 0.0625 µg/mL
- MIC [9]: 2 µg/mL (≈ 3.41 µM)
- MIC [10]: 0.25 µg/mL (≈ 0.427 µM)
- MIC [11]: 2 µg/mL (≈ 3.41 µM)
- MIC [12]: 2 µg/mL
- MIC [13]: 32 µg/mL (≈ 54.6 µM)
- MIC [14]: < 0.0625 µg/mL
- MIC [15]: < 0.0625 µg/mL
- MIC [16]: < 0.0625 µg/mL
- MIC [17]: 0.125 µg/mL (≈ 0.213 µM)
- MIC [18]: 2 µg/mL (≈ 3.41 µM)
- MIC [19]: 4 µg/mL (≈ 6.83 µM)
